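Assay format: 96-well plates, 48-hour exposure. At the GI50, growth is halved.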 Activity calls are given as the source filed them. Rule as the data show it: active = GI50 up to about 1.1 µM and inactive = higher.
Key:
Assay in all cases: inhibition of tumour cell growth, NCI panel, 48 h
[1] = tested on: SK-OV-3
[2] = tested on: SF-539
[3] = tested on: HOP-92
[4] = tested on: EKVX
[5] = tested on: OVCAR-8
[6] = tested on: HCT-15
[7] = tested on: 786-0
[8] = tested on: CCRF-CEM
[9] = tested on: SNB-75
[10] = tested on: KM12
[11] = tested on: SK-MEL-28
[12] = tested on: U-251
[13] = tested on: K562
[14] = tested on: M14
[15] = tested on: A498
[16] = tested on: UACC-62
[17] = tested on: SK-MEL-2
[18] = tested on: SR

Structure (SMILES) | GI50 [1] | GI50 [2] | GI50 [3] | GI50 [4] | GI50 [5] | GI50 [6] [µM] | GI50 [7] | GI50 [8] | GI50 [9] | GI50 [10] | GI50 [11] | GI50 [12] | GI50 [13] | GI50 [14] | GI50 [15] | GI50 [16] | GI50 [17] | GI50 [18]
CC(=O)Nc1ccccc1[S+]([O-])c1ccccc1 (stereo not given) | 84.5 µM (inactive) | > 100 µM (inactive) | > 100 µM (inactive) | > 100 µM (inactive) | > 100 µM (inactive) | > 100 | > 100 µM (inactive) | > 100 µM (inactive) | > 100 µM (inactive) | > 100 µM (inactive) | > 100 µM (inactive) | > 100 µM (inactive) | > 100 µM (inactive) | > 100 µM (inactive) | > 100 µM (inactive) | > 100 µM (inactive) | > 100 µM (inactive) | 
CN(C)CCNC(=O)c1cccc2c1nc(-c1ccccc1)c1ccccc12 | 6.24 µM (inactive) | 2.19 µM (inactive) | 2.83 µM (inactive) | 12.9 µM (inactive) | 4.43 µM (inactive) | 2.68 | 3.97 µM (inactive) | 1.61 µM (inactive) | 6.76 µM (inactive) | 6.19 µM (inactive) | 9.1 µM (inactive) | 5 µM (inactive) | 2.17 µM (inactive) | 2.07 µM (inactive) | 0.91 µM (active) | 11.9 µM (inactive) | 11.1 µM (inactive) | 
Cc1ccc(S(=O)(=O)n2cc(/C=C/C#N)c(/C=C/C#N)c2)cc1 | > 100 µM (inactive) | > 100 µM (inactive) | 24.8 µM (inactive) | 85.1 µM (inactive) | > 100 µM (inactive) | 88.9 | > 100 µM (inactive) | 43.8 µM (inactive) | 29.8 µM (inactive) | 48.4 µM (inactive) | > 100 µM (inactive) | 94.8 µM (inactive) | 34 µM (inactive) | 89.7 µM (inactive) | 50.5 µM (inactive) | 48.9 µM (inactive) | 74.3 µM (inactive) | 
O=C(CCc1nnc2s/c(=C\c3ccc([N+](=O)[O-])cc3)c(=O)n12)Nc1ccc(Cl)c(Cl)c1 | 38.5 µM (inactive) | 17.9 µM (inactive) | 38.6 µM (inactive) |  | 20.1 µM (inactive) | 24.7 | 17.9 µM (inactive) | 20.2 µM (inactive) | 10.4 µM (inactive) | 16 µM (inactive) | 21.8 µM (inactive) | 16.6 µM (inactive) | 20.3 µM (inactive) | 21.6 µM (inactive) | 85.3 µM (inactive) | 26.5 µM (inactive) | 27.7 µM (inactive) | 
O=C(O)c1cc(-c2ccccc2O)nc2ccccc12 | > 100 µM (inactive) | > 100 µM (inactive) |  | > 100 µM (inactive) | > 100 µM (inactive) | > 100 | > 100 µM (inactive) | > 100 µM (inactive) | > 100 µM (inactive) | > 100 µM (inactive) | > 100 µM (inactive) | > 100 µM (inactive) | > 100 µM (inactive) | > 100 µM (inactive) | > 100 µM (inactive) | > 100 µM (inactive) | > 100 µM (inactive) | 
O=C(Nc1cccc(NC(=O)c2cc(=O)c3ccccc3o2)n1)c1cc(=O)c2ccccc2o1 | > 100 µM (inactive) | 20.3 µM (inactive) | 17.3 µM (inactive) | 57.4 µM (inactive) | > 100 µM (inactive) | 4.06 | > 100 µM (inactive) | 42.2 µM (inactive) | 38.8 µM (inactive) | 17.9 µM (inactive) | 62.4 µM (inactive) | 66.8 µM (inactive) | 5.46 µM (inactive) | 12.3 µM (inactive) | 75.5 µM (inactive) | 6.75 µM (inactive) | > 100 µM (inactive) | 
C#CCN(C)C(=O)N(CC#C)N=O | > 100 µM (inactive) | > 100 µM (inactive) | > 100 µM (inactive) | > 100 µM (inactive) | > 100 µM (inactive) | > 100 | > 100 µM (inactive) | > 100 µM (inactive) | > 100 µM (inactive) | > 100 µM (inactive) | > 100 µM (inactive) | 54.2 µM (inactive) | > 100 µM (inactive) | > 100 µM (inactive) | > 100 µM (inactive) | > 100 µM (inactive) | > 100 µM (inactive) | 
N#CC(/C(=N/NC(=O)C(=O)NN)C(=O)Nc1nc([N+](=O)[O-])cs1)c1ccc(Cl)cc1 (stereo not given) |  |  | > 100 µM (inactive) | > 100 µM (inactive) | > 100 µM (inactive) |  | > 100 µM (inactive) | 89.5 µM (inactive) | > 100 µM (inactive) | > 100 µM (inactive) | > 100 µM (inactive) | > 100 µM (inactive) |  | > 100 µM (inactive) |  | 56.5 µM (inactive) | > 100 µM (inactive) | 
CC(=O)O[C@H]1CCN2C(=O)C=CC(OCc3ccccc3)C12 (stereo not given in full) | > 100 µM (inactive) | > 100 µM (inactive) | > 100 µM (inactive) | > 100 µM (inactive) | > 100 µM (inactive) | > 100 | > 100 µM (inactive) | > 100 µM (inactive) | > 100 µM (inactive) | > 100 µM (inactive) | > 100 µM (inactive) | > 100 µM (inactive) | > 100 µM (inactive) | > 100 µM (inactive) | > 100 µM (inactive) | > 100 µM (inactive) | > 100 µM (inactive) | 
O=C(c1ccc2c3c(ccc(C(=O)C(F)(F)F)c13)CC2)C(F)(F)F | > 100 µM (inactive) | > 100 µM (inactive) | 27 µM (inactive) | 81.7 µM (inactive) | 47.5 µM (inactive) | 58.7 | 57.5 µM (inactive) |  | 29.4 µM (inactive) | 44.1 µM (inactive) | 62.2 µM (inactive) | 63.2 µM (inactive) |  | 34.4 µM (inactive) | 47.9 µM (inactive) | 79.3 µM (inactive) | 97.5 µM (inactive) | 60.1 µM (inactive)
CC(C)(CN1CCCCC1)C(=O)/C=C/c1ccccc1 | 21.3 µM (inactive) | 10.8 µM (inactive) |  | 7.13 µM (inactive) | 15.8 µM (inactive) | 13.1 | 13.6 µM (inactive) | 5.93 µM (inactive) | 11.6 µM (inactive) | 9.25 µM (inactive) | 15.6 µM (inactive) | 21.5 µM (inactive) | 3.4 µM (inactive) | 18.7 µM (inactive) | 18.5 µM (inactive) | 18.9 µM (inactive) | 14.4 µM (inactive) | 
COc1ccc(CNc2nc3ccccc3nc2-c2cccs2)cc1OC |  | 41 µM (inactive) | 13.4 µM (inactive) | 59 µM (inactive) | 34 µM (inactive) | 34.8 | 33.5 µM (inactive) | 33.3 µM (inactive) |  |  | 84.5 µM (inactive) | 75.5 µM (inactive) | 59.4 µM (inactive) |  |  |  | 63.7 µM (inactive) | 15.5 µM (inactive)
NC(=O)c1cccc(C2OC(COP(=O)(O)O)C(O)C2O)c1 (stereo not given) | > 50 µM (inactive) | 15.8 µM (inactive) |  | > 50 µM (inactive) | 16 µM (inactive) | 27.4 | 21.7 µM (inactive) | 9.93 µM (inactive) | 14.4 µM (inactive) | > 50 µM (inactive) | 45.9 µM (inactive) | > 50 µM (inactive) | 26.8 µM (inactive) | 20 µM (inactive) | > 50 µM (inactive) | > 50 µM (inactive) | > 50 µM (inactive) | 
Oc1ccc(O)c(-n2cccn2)c1 | > 100 µM (inactive) | > 100 µM (inactive) | 45.9 µM (inactive) | > 100 µM (inactive) | 40.7 µM (inactive) | > 100 | 62.1 µM (inactive) | 20.6 µM (inactive) | > 100 µM (inactive) | > 100 µM (inactive) | > 100 µM (inactive) | > 100 µM (inactive) | 24.2 µM (inactive) | > 100 µM (inactive) | > 100 µM (inactive) | 50.4 µM (inactive) | 37 µM (inactive) | 
CCOC(=O)C(=O)Nc1nc2c(OCC)cccc2s1 | > 100 µM (inactive) | > 100 µM (inactive) | > 100 µM (inactive) | > 100 µM (inactive) | > 100 µM (inactive) | > 100 | > 100 µM (inactive) |  | > 100 µM (inactive) | > 100 µM (inactive) | > 100 µM (inactive) | > 100 µM (inactive) | > 100 µM (inactive) | > 100 µM (inactive) | > 100 µM (inactive) | > 100 µM (inactive) | > 100 µM (inactive) | 
CCOC(=O)CC1NC(=O)CS1 (stereo not given) | > 100 µM (inactive) | > 100 µM (inactive) | > 100 µM (inactive) | > 100 µM (inactive) | > 100 µM (inactive) | 20 | 45.8 µM (inactive) | > 100 µM (inactive) | > 100 µM (inactive) | > 100 µM (inactive) | > 100 µM (inactive) | > 100 µM (inactive) | 80.4 µM (inactive) | > 100 µM (inactive) | > 100 µM (inactive) | > 100 µM (inactive) |  | 
CC(C)(C)OC(=O)N1N=NC2C1C1CC(OCc3ccccc3)(OCc3ccccc3)C2O1 (stereo not given) | > 100 µM (inactive) | > 10 µM (inactive) | 33.5 µM (inactive) |  |  | 31.3 | 40.8 µM (inactive) | 11.2 µM (inactive) | 28.1 µM (inactive) | 81.8 µM (inactive) | 29 µM (inactive) | 55.1 µM (inactive) | 20.2 µM (inactive) | 44.1 µM (inactive) | > 100 µM (inactive) | 71.4 µM (inactive) | 49.2 µM (inactive) | 
O=C(c1ccccc1)C(c1ccccc1)C1(O)C(=O)Nc2ccccc21 (stereo not given) | > 100 µM (inactive) | > 100 µM (inactive) | > 100 µM (inactive) | > 100 µM (inactive) | > 100 µM (inactive) | > 100 | > 100 µM (inactive) | > 100 µM (inactive) | 43.6 µM (inactive) |  | > 100 µM (inactive) |  | > 100 µM (inactive) | > 100 µM (inactive) | > 100 µM (inactive) | > 100 µM (inactive) | > 100 µM (inactive) | 

From ChEMBL document CHEMBL1201862, “PubChem BioAssay data set” (2004)
